Reference: ChEMBL document CHEMBL5724696, “Autophagy assay results for EUbOPEN Chemogenomics Library” (2024)

Tests used:
Format in all cases: functional, Homo sapiens
TERT-RPE1 = test: (§1) Here: values are normalized to the negative (DMSO; defined as 0% autophagy induction) and positive (250nM Torin1; mTOR inhibitor; defined as maximal inducer of autophagy = 100%) control compounds and represented as % of autophagy induction. […] The impact of autophagy induction on cells is complex and depends on the affected target. As such, the magnitude of a phenotype may not be equally mirrored in the %-value of autophagy induction and vice versa. The dynamics of the induction may indicate the mode of activation: e.g. activation via phosphorylation or a signaling cascade may occur fast, while activation via transcription factors may take considerably longer. […] Of note, treatment concentrations may be sub-optimal for specific compounds, leading to false negative annotations.; conditions: Culturing Media DMEM/F12 (1:1), 1 % Penicillin/Streptomycin, 10% Fetal bovin serum Add-On: No, Screening Media Control DMEM/F12 (1:1), Screening Media Samples DMEM/F12 (1:1)
U2OS [1] = test: as §1; conditions: Culturing Media DMEM, 1 % Penicillin/Streptomycin, 10% Fetal bovin serum Add-On: No, Screening Media Control DMEM, Screening Media Samples DMEM
U2OS [2] = test: as §1; conditions: Culturing Media DMEM, 1 % Penicillin/Streptomycin, 10% Fetal bovin serum Add-On: No, Screening Media Control DMEM, Screening Media Samples DMEM; remark: listed apart in the source
[3] = Compound Concentration 0.5 uM, Timepoint 12 hours
[4] = Compound Concentration 0.5 uM, Timepoint 24 hours
[5] = Compound Concentration 0.5 uM, Timepoint 36 hours
[6] = Compound Concentration 0.5 uM, Timepoint 60 hours
[7] = Compound Concentration 2 uM, Timepoint 12 hours
[8] = Compound Concentration 2 uM, Timepoint 24 hours
[9] = Compound Concentration 2 uM, Timepoint 36 hours
[10] = Compound Concentration 2 uM, Timepoint 60 hours
[11] = Compound Concentration 10 uM, Timepoint 12 hours
[12] = Compound Concentration 10 uM, Timepoint 24 hours
[13] = Compound Concentration 10 uM, Timepoint 36 hours
[14] = Compound Concentration 10 uM, Timepoint 60 hours

Compound: CC(C)C[C@H](NC(=O)N1CCCCCC1)C(=O)N[C@H](Cc1cn(C)c2ccccc12)C(=O)N[C@H](Cc1ccccn1)C(=O)O
- autophagy induction (TERT-RPE1; [3]): -9.746%
- autophagy induction (TERT-RPE1; [4]): -10.9738%
- autophagy induction (TERT-RPE1; [5]): -11.345%
- autophagy induction (TERT-RPE1; [6]): -17.0217%
- autophagy induction (TERT-RPE1; [7]): -8.2266%
- autophagy induction (TERT-RPE1; [8]): -8.649%
- autophagy induction (TERT-RPE1; [9]): -10.3216%
- autophagy induction (TERT-RPE1; [10]): -11.9295%
- autophagy induction (TERT-RPE1; [11]): -4.458%
- autophagy induction (TERT-RPE1; [12]): -5.829%
- autophagy induction (TERT-RPE1; [13]): -9.562%
- autophagy induction (TERT-RPE1; [14]): -13.6367%
- autophagy induction (U2OS [1]; [3]): 0.2891%
- autophagy induction (U2OS [1]; [4]): 0.184%
- autophagy induction (U2OS [1]; [5]): -1.273%
- autophagy induction (U2OS [1]; [6]): 0.7204%
- autophagy induction (U2OS [1]; [7]): 2.596%
- autophagy induction (U2OS [1]; [8]): 1.655%
- autophagy induction (U2OS [1]; [9]): -0.3512%
- autophagy induction (U2OS [1]; [10]): -0.2043%
- autophagy induction (U2OS [1]; [11]): 5.448%
- autophagy induction (U2OS [1]; [12]): 0.3648%
- autophagy induction (U2OS [1]; [13]): -0.3169%
- autophagy induction (U2OS [1]; [14]): 1.561%
- autophagy induction (U2OS [2]; [3]): 4.132%
- autophagy induction (U2OS [2]; [4]): 4.485%
- autophagy induction (U2OS [2]; [5]): 3.039%
- autophagy induction (U2OS [2]; [6]): -0.6751%
- autophagy induction (U2OS [2]; [7]): 3.762%
- autophagy induction (U2OS [2]; [8]): 6.744%
- autophagy induction (U2OS [2]; [9]): 4.273%
- autophagy induction (U2OS [2]; [10]): 0.0386%
- autophagy induction (U2OS [2]; [11]): 4.084%
- autophagy induction (U2OS [2]; [12]): 1.596%
- autophagy induction (U2OS [2]; [13]): 3.219%
- autophagy induction (U2OS [2]; [14]): 5.8133%

Compound: CSc1ccc(C(=O)N[C@@H]2CCCC[C@@H]2NC(=O)CNC(=O)c2cc(C(F)(F)F)ccc2NC(=O)NC(C)C)cc1
- autophagy induction (TERT-RPE1; [3]): -7.317%
- autophagy induction (TERT-RPE1; [4]): -10.4362%
- autophagy induction (TERT-RPE1; [5]): -10.5931%
- autophagy induction (TERT-RPE1; [6]): -10.1253%
- autophagy induction (TERT-RPE1; [7]): -7.697%
- autophagy induction (TERT-RPE1; [8]): -8.893%
- autophagy induction (TERT-RPE1; [9]): -11.9452%
- autophagy induction (TERT-RPE1; [10]): -15.6367%
- autophagy induction (TERT-RPE1; [11]): -4.351%
- autophagy induction (TERT-RPE1; [12]): -5.968%
- autophagy induction (TERT-RPE1; [13]): -5.344%
- autophagy induction (TERT-RPE1; [14]): -2.567%
- autophagy induction (U2OS [1]; [3]): -1.519%
- autophagy induction (U2OS [1]; [4]): -1.673%
- autophagy induction (U2OS [1]; [5]): -0.1292%
- autophagy induction (U2OS [1]; [6]): -0.4268%
- autophagy induction (U2OS [1]; [7]): 6.41%
- autophagy induction (U2OS [1]; [8]): -0.3397%
- autophagy induction (U2OS [1]; [9]): 0.2664%
- autophagy induction (U2OS [1]; [10]): 0.6149%
- autophagy induction (U2OS [1]; [11]): -6.202%
- autophagy induction (U2OS [1]; [12]): -3.0141%
- autophagy induction (U2OS [1]; [13]): -1.6234%
- autophagy induction (U2OS [1]; [14]): -0.3642%
- autophagy induction (U2OS [2]; [3]): -3.4763%
- autophagy induction (U2OS [2]; [4]): -6.206%
- autophagy induction (U2OS [2]; [5]): -3.128%
- autophagy induction (U2OS [2]; [6]): -12.7895%
- autophagy induction (U2OS [2]; [7]): 8.51%
- autophagy induction (U2OS [2]; [8]): 8.515%
- autophagy induction (U2OS [2]; [9]): 8.998%
- autophagy induction (U2OS [2]; [10]): -1.4223%
- autophagy induction (U2OS [2]; [11]): 3.613%
- autophagy induction (U2OS [2]; [12]): 5.882%
- autophagy induction (U2OS [2]; [13]): 6.117%
- autophagy induction (U2OS [2]; [14]): 10.5977%
